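Step 1: Grow cells in 96-well plates. Step 2: Expose to compound for 48 hours at 5 concentrations. Step 3: Interpolate endpoints linearly; if unreached, use highest concentration. GI50 = concentration required for 50% inhibition of growth.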 Active and inactive are the calls of the source. Rule as the data show it: active = GI50 up to about 1.1 µM and inactive = higher. Where a SMILES comes first, the peptide text is derived from it. The star is where a group is joined. Cbz = O=C(OCc1ccccc1)*
Experiments:
Assay in all cases: NCI anticancer screen, dose series, 48 h
[1] = tested on: 786-0
[2] = tested on: DU-145
[3] = tested on: HOP-92
[4] = tested on: IGROV-1
[5] = tested on: LOX IMVI
[6] = tested on: M14
[7] = tested on: MCF7
[8] = tested on: MDA-MB-435
[9] = tested on: MDA-N
[10] = tested on: MOLT-4
[11] = tested on: PC-3
[12] = tested on: RXF 393
[13] = tested on: SF-268
[14] = tested on: SK-MEL-28
[15] = tested on: SK-MEL-2
[16] = tested on: SN12C
[17] = tested on: SR
[18] = tested on: SW-620
[19] = tested on: HCT-116
[20] = tested on: NCI-H460

Row | SMILES | GI50 [1] | GI50 [2] | GI50 [3] | GI50 [4] | GI50 [5] | GI50 [6] | GI50 [7] | GI50 [8] | GI50 [9] | GI50 [10] | GI50 [11] | GI50 [12] | GI50 [13] | GI50 [14] | GI50 [15] | GI50 [16] | GI50 [17] | GI50 [18] | GI50 [19] | GI50 [20]
1 | CCCCCCCCCC[S+]([O-])CC(CO)NC(=O)/C=C/c1c(C)nc(O)nc1O (stereo not given) | 10.9 µM (inactive) | 43.4 µM (inactive) | 0.189 µM (active) | 0.959 µM (active) | 0.877 µM (active) | 11 µM (inactive) | 0.252 µM (active) | 14 µM (inactive) | 25.1 µM (inactive) | 0.518 µM (active) | 1.43 µM (inactive) | 0.474 µM (active) | 0.149 µM (active) | 1.21 µM (inactive) | 0.721 µM (active) | 0.126 µM (active) | 65.2 µM (inactive) | 0.535 µM (active) |  | 
2 | COC1CC(OC2CCC3(C)C(CCC45CCC(C6=CC(=O)OC6)C(C)(CCC43)C5=O)C2)OC(C)C1O (stereo not given) | 23.6 µM (inactive) | 15.9 µM (inactive) | 81.5 µM (inactive) | 38.7 µM (inactive) | 38.4 µM (inactive) | > 100 µM (inactive) | 50.7 µM (inactive) | > 100 µM (inactive) | > 100 µM (inactive) | 32.1 µM (inactive) | 39.3 µM (inactive) | 24 µM (inactive) | 17.5 µM (inactive) | > 100 µM (inactive) | 31.3 µM (inactive) | 23.5 µM (inactive) | 28.1 µM (inactive) | 43.7 µM (inactive) | 35.1 µM (inactive) | 18 µM (inactive)
3 | CCCCc1ccc(-n2c(C)c(COC(=O)NC)c(COC(=O)NC)c2C)cc1 | 4.08 µM (inactive) | 6.98 µM (inactive) | 2.74 µM (inactive) |  | 4.65 µM (inactive) | 6.12 µM (inactive) | 4.76 µM (inactive) | 12.5 µM (inactive) | 13.2 µM (inactive) |  | 10.9 µM (inactive) | 2.84 µM (inactive) | 4.81 µM (inactive) | 19.1 µM (inactive) |  | 3.54 µM (inactive) | 0.818 µM (active) | 6.46 µM (inactive) | 4.08 µM (inactive) | 3.81 µM (inactive)
4 | CCCCCCCCCCCCCC(=O)OC(/C=C/C(C)C)C(O)C(O)C(OC)C(=O)NC1CCCCN(C)C1=O (stereo not given) | 1.28 µM (inactive) | > 10 µM (inactive) | 4 µM (inactive) | 0.457 µM (active) | 7.23 µM (inactive) | 1.56 µM (inactive) | 1.93 µM (inactive) | 5.25 µM (inactive) | > 10 µM (inactive) | 2.7 µM (inactive) | 7.48 µM (inactive) | 1.45 µM (inactive) | 5.27 µM (inactive) | 3.61 µM (inactive) | 4.2 µM (inactive) | 3.23 µM (inactive) | 0.773 µM (active) | 1.36 µM (inactive) | 0.927 µM (active) | 0.687 µM (active)
5 | Cc1ccc(C(=O)/C=C2\Nc3cccnc3NC2=O)cc1 | 40.2 µM (inactive) | > 100 µM (inactive) | > 100 µM (inactive) | > 100 µM (inactive) | > 100 µM (inactive) | > 100 µM (inactive) | > 100 µM (inactive) | > 100 µM (inactive) | > 100 µM (inactive) | > 100 µM (inactive) | > 100 µM (inactive) | 21.7 µM (inactive) | 55.8 µM (inactive) | > 100 µM (inactive) | > 100 µM (inactive) | > 100 µM (inactive) | > 100 µM (inactive) |  | > 100 µM (inactive) | > 100 µM (inactive)
6 | CCOC(=O)C(=CNc1ccc(F)c(F)c1)C(=O)OCC | > 100 µM (inactive) | > 100 µM (inactive) | > 100 µM (inactive) | > 100 µM (inactive) | > 100 µM (inactive) | > 100 µM (inactive) | > 100 µM (inactive) | > 100 µM (inactive) | 93.1 µM (inactive) | 46 µM (inactive) | 67.6 µM (inactive) | > 100 µM (inactive) | > 100 µM (inactive) | > 100 µM (inactive) | > 100 µM (inactive) | > 100 µM (inactive) | 39.2 µM (inactive) | > 100 µM (inactive) | > 100 µM (inactive) | > 100 µM (inactive)
7 | c1ccc2[nH]c(C3CCCCO3)nc2c1 (stereo not given) | > 100 µM (inactive) | > 100 µM (inactive) | > 100 µM (inactive) | > 100 µM (inactive) | > 100 µM (inactive) | > 100 µM (inactive) | > 100 µM (inactive) | > 100 µM (inactive) | > 100 µM (inactive) | > 100 µM (inactive) | > 100 µM (inactive) | > 100 µM (inactive) | > 100 µM (inactive) | > 100 µM (inactive) | > 100 µM (inactive) | > 100 µM (inactive) | > 100 µM (inactive) | > 100 µM (inactive) | > 100 µM (inactive) | 
8 | Cc1ccc(S(=O)(=O)N2CC3OC(C)(C)OC3C2CO)cc1 (stereo not given) | > 100 µM (inactive) | > 100 µM (inactive) | > 100 µM (inactive) | > 100 µM (inactive) |  | > 100 µM (inactive) | > 100 µM (inactive) | > 100 µM (inactive) | > 100 µM (inactive) | > 100 µM (inactive) | > 100 µM (inactive) | > 100 µM (inactive) | > 100 µM (inactive) | > 100 µM (inactive) | > 100 µM (inactive) | > 100 µM (inactive) | > 100 µM (inactive) | > 100 µM (inactive) | > 100 µM (inactive) | > 100 µM (inactive)
9 | CCOC(=O)N1CCC2(CC1)CC(=O)N(Nc1ccccc1)C2=O | > 100 µM (inactive) | > 100 µM (inactive) | > 100 µM (inactive) | 79.8 µM (inactive) | 98.4 µM (inactive) | > 100 µM (inactive) | 90.6 µM (inactive) | 30.8 µM (inactive) | 78.3 µM (inactive) | > 100 µM (inactive) | 40.6 µM (inactive) | > 100 µM (inactive) | > 100 µM (inactive) | 74.3 µM (inactive) | > 100 µM (inactive) | > 100 µM (inactive) | 32.1 µM (inactive) | > 100 µM (inactive) | > 100 µM (inactive) | 94.4 µM (inactive)
10 | COc1ccc(NC(=O)c2cc(NC(=O)/C=C/c3ccccc3)c(OC)c(OC)c2)cc1 | 11.7 µM (inactive) | 16.3 µM (inactive) | 16.8 µM (inactive) |  | 4.73 µM (inactive) | > 100 µM (inactive) | 3.69 µM (inactive) | 3.07 µM (inactive) | 3.1 µM (inactive) | 6 µM (inactive) | 6.41 µM (inactive) | 11.2 µM (inactive) | 56.8 µM (inactive) | 20.4 µM (inactive) | 2.58 µM (inactive) | 6.3 µM (inactive) | 4.03 µM (inactive) | 6.81 µM (inactive) | 2.48 µM (inactive) | 11.7 µM (inactive)
11 | COc1ccc(/C=C\c2cc(OC)c(OC)c(OC)c2)cc1OC(=O)NCCN(C)C | 0.00161 µM (active) | 0.000307 µM (active) | < 0.0001 µM (active) |  | 0.000147 µM (active) | 0.000156 µM (active) | 0.00334 µM (active) | < 0.0001 µM (active) | < 0.0001 µM (active) | 0.000145 µM (active) | 0.000152 µM (active) | < 0.0001 µM (active) |  | 11.8 µM (inactive) |  | 0.000244 µM (active) | 0.000154 µM (active) | < 0.0001 µM (active) | < 0.0001 µM (active) | 0.000125 µM (active)
12 | CCCC(=O)NC(Nc1ccc(S(=O)(=O)Nc2cc(C)on2)cc1)(C(=O)OCC)C(F)(F)F (stereo not given) | > 100 µM (inactive) | > 100 µM (inactive) | > 100 µM (inactive) | > 100 µM (inactive) | > 100 µM (inactive) | > 100 µM (inactive) | > 100 µM (inactive) | > 100 µM (inactive) | > 100 µM (inactive) | 55.3 µM (inactive) | > 100 µM (inactive) | > 100 µM (inactive) | > 100 µM (inactive) | > 100 µM (inactive) | > 100 µM (inactive) | > 100 µM (inactive) | 9.75 µM (inactive) | > 100 µM (inactive) | > 100 µM (inactive) | 
13 | CCOC(=O)CNC(=O)C(C)NC(=O)C(NC(=O)OCc1ccccc1)C(C)C (stereo not drawn) (Cbz-Val-Ala-Gly-OEt; configuration not given here) | > 100 µM (inactive) | > 100 µM (inactive) | > 100 µM (inactive) | > 100 µM (inactive) |  | > 100 µM (inactive) | > 100 µM (inactive) | > 100 µM (inactive) | > 100 µM (inactive) | 32 µM (inactive) | > 100 µM (inactive) | > 100 µM (inactive) | > 100 µM (inactive) | > 100 µM (inactive) | 77.8 µM (inactive) | > 100 µM (inactive) | > 100 µM (inactive) | > 100 µM (inactive) | > 100 µM (inactive) | > 100 µM (inactive)
14 | COc1cc(O)c2c(O)c3c(=O)oc(C)cc3c(OC)c2c1 [PAEPALANTINE] | 31.1 µM (inactive) | 41.6 µM (inactive) | 16.1 µM (inactive) | 27 µM (inactive) |  | 32 µM (inactive) | 32.6 µM (inactive) | 18.3 µM (inactive) | 27.4 µM (inactive) | 23 µM (inactive) | 28.4 µM (inactive) | 49.8 µM (inactive) | 34.3 µM (inactive) | 25 µM (inactive) | 31.9 µM (inactive) | 24.1 µM (inactive) | 26.1 µM (inactive) | 34.2 µM (inactive) | 20.6 µM (inactive) | 32.4 µM (inactive)
